For one compound, MIC and Stability in solution results are on record in patent publication US6399086B1, “Pharmaceutical preparations for the controlled release of beta-lactam antibiotics” (Yissum Research Development Company of the Hebrew …, priority 1997, dated 2002).

One series deals with Enterococcus faecalis. Conditions: cited from earlier work.
Another series deals with Streptococci pneumoniae. As to conditions: cited from earlier work.
A short description of series [1]: Stability of active agent in the dissolution medium. Conditions: 37° C. The series is classed as physicochemical. As for the experimental part:
Determination of Stability of active Agent in the Dissolution Medium
Following 1, 2, 4, 6, 8 and 24 hrs the absorption profile of the drug between 200 nm and 300 nm was determined and compared with the absorption profile of the solutions before storage.

A further series concerns Streptococci group A. Conditions: cited from earlier work.
The subject of a further series is Haemophilus influenza. Conditions: cited from earlier work.
The next series has as its system Staphylococcus aureus. Conditions: cited from earlier work.

Turning to `CC1(C)S[C@@H]2[C@H](NC(=O)[C@H](N)c3ccc(O)cc3)C(=O)N2[C@H]1C(=O)O` [Amoxicillin, amoxicillin trihydrate], the MIC is 0.5 µg/mL in the series on Enterococcus faecalis; 0.02 µg/mL with Streptococci pneumoniae; 0.01 µg/mL in the series with Streptococci group A; 0.25 µg/mL in the series with Haemophilus influenza; 0.1 µg/mL with Staphylococcus aureus. For the same compound, the Stability in solution result in series [1] (pH=1.2, after 1hr) is listed as “deterioration occurred”; in series [1] (pH=2, after 6 hrs), “stable”; in series [1] (pH=6.8, after 24 hrs), “stable”; in series [1] (pH=7.4, after 24 hrs), “stable”.
